From US9616009B2, “Composition containing at least one C7 sugar for alopecia treatment, cosmetic treatment of hair and nails, and care of hair, eyelashes or nails” (LABORATOIRES EXPANSCIENCE, priority 2009, dated 2017)

Columns and labels:
IL-1β = IL-1β release (ELISA) by keratinocytes stressed with PMA; type: cell-based, human
Experimental: (§1) We evaluated the capacity to modulate the inflammatory response of the avocado sugars obtained according to Example 1, hereafter called AV119, in human primary keratinocytes stressed with PMA (phorbol myristic acetate).
(§2) At day 0 (D0), normal human epidermal keratinocytes (NHEK) are seeded in hydrocortisone-free KGM2 medium.
(§3) At subconfluence (at D1), the NHEK are rinsed with PBS and then pretreated with 0.005% and 0.05% avocado sugars AV119 or 0.1 μM dexamethasone (positive control) (Sigma, product D4902) in hydrocortisone-free KGM2 medium.
(§4) Twenty-four hours later, the NHEK are treated overnight with 10 μg/ml PMA (phorbol myristate acetate).
(§5) After incubation, the culture supernatants are collected and stored at −80° C. awaiting the cytokine (IL-1β, TNF-α, IL-8) ELISA (R&D Systems kits).
(§6) In parallel, the number of living cells is determined by a neutral red test.
(§7) The quantity of cytokine assayed for each condition (concentration in pg/ml, or OD450) is reduced to the number of living cells by dividing by the OD540 value obtained at the end of the neutral red test.
(§8) The results are compared statistically using a one way ANOVA followed by a Tukey's test.

TNF-α [1] = experiment: TNF-α release (ELISA) by keratinocytes stressed with PMA; type: cell-based, human
Experimental: as §1, §2, §3, §4, §5, §6, §7, §8

IL-8 [2] = experiment: IL-8 release (ELISA) by keratinocytes stressed with PMA; type: cell-based, human
Experimental: as §1, §2, §3, §4, §5, §6, §7, §8

[3] = system: tumor cells of Ehrlich's ascites carcinoma; conditions: perseitol associated with a potassium ion; Shibuya et al., Pure Appl. Chem. 1999; cited from earlier work
IL-1α [4] = experiment: IL-1α gene expression (mRNA, real-time PCR) in keratinocytes stressed with LPS; type: cell-based, human; conditions: keratinocytes stressed with 10 μg/ml LPS 24 h: LPS alone, or pretreated with 0.1% AV119 24 h, or with 30 μM calpain
Experimental: (§9) We evaluated the capacity to modulate the inflammatory response of the avocado sugars obtained according to Example 1, hereafter called AV119, in human primary keratinocytes stressed with LPS (lipopolysaccharide).
(§10) The cells were pretreated with 0.1% AV119 for 24 h and successively with 10 μg/ml of LPS for 24 h. In another series of experiments, the keratinocytes were pretreated with 30 μM calpain and successively with 10 μg/ml LPS for 24 h. Calpain is a specific inhibitor of the transcription factor NFκB, a key element of the inflammatory cascade. A control of keratinocytes treated only with AV119 was prepared.
(§11) Expression of mRNA for the cytokines IL-6, IL-8, IL-1α and TNF-α was analyzed by real-time PCR and protein production and release were analyzed by ELISA in the culture supernatants. Moreover, ICAM-1 expression and production were also analyzed. Finally, IκB phosphorylation was analyzed to measure the activation of transcription factor NFκB.
(§12) Total RNA was extracted with the High Pure RNA Isolation Kit (Roche Diagnostics) according to the manufacturer's recommendations. […] The melting curve was analyzed at the end of each amplification to ensure the absence of non-specific reaction products. […]

TNF-α [5] = experiment: TNF-α gene expression (mRNA, real-time PCR) in keratinocytes stressed with LPS; type: cell-based, human; conditions: keratinocytes stressed with 10 μg/ml LPS 24 h: LPS alone, or pretreated with 0.1% AV119 24 h, or with 30 μM calpain
Experimental: as §9, §10, §11, §12

[6] = system: IκB phosphorylation / transcription factor NFκB; experiment: IκB phosphorylation (Western blot) as measure of NFκB activation in keratinocytes stressed with LPS; type: cell-based, human; conditions: keratinocytes stressed with 10 μg/ml LPS; pretreated with 0.1% AV119 or 30 μM calpain
Experimental: as §9, §10, §11
Proteins were extracted from the keratinocytes by cold homogenization in lysis buffer (50 mM HEPES pH 7.5, 150 mM NaCl, 1% glycerol, 1% Triton, 1.5 mM MgCl2, 5 mM EGTA) supplemented with 20 mM sodium pyrophosphate, 10 mM sodium orthovanadate and 25 mM NaF and protease inhibitors (aprotinin, phenylmethanesulfonyl fluoride (PMSF)). Protein level was quantified by the Bradford method. […]

IL-6 [7] = experiment: IL-6 protein production (ELISA) in keratinocytes stressed with LPS; type: cell-based, human; conditions: keratinocytes stressed with 10 μg/ml LPS 24 h: LPS alone, or pretreated with 0.1% AV119 24 h, or with 30 μM calpain; culture supernatant
Experimental: as §9, §10, §11
(§13) A standard protocol was used for the ELISA tests (Phoenix Pharmaceuticals, Inc.).

TNF-α [8] = experiment: TNF-α protein production (ELISA) in keratinocytes stressed with LPS; type: cell-based, human; conditions: keratinocytes stressed with 10 μg/ml LPS 24 h: LPS alone, or pretreated with 0.1% AV119 24 h, or with 30 μM calpain; culture supernatant
Experimental: as §9, §10, §11, §13

ICAM-1 [9] = experiment: ICAM-1 gene expression (mRNA, real-time PCR) in keratinocytes stressed with LPS; type: cell-based, human; conditions: keratinocytes stressed with 10 μg/ml LPS 24 h: LPS alone, or with 30 μM calpain
Experimental: as §9
as §10, with “The cells were pretreated with 0.1% AV119 for 24 h and successively with 10 μg/ml of LPS for 24 h.” left out
as §11
Total RNA was extracted with the High Pure RNA Isolation Kit (Roche Diagnostics) according to the manufacturer's recommendations. […] The melting curve was analyzed at the end of each amplification to ensure the absence of non-specific reaction products. Quantification rests on the measure of threshold cycles (CT), which are measured at the beginning of the exponential phase of the reaction and on the normalization of the internal standard curve obtained with the reference gene beta-actin.

IL-1α [10] = experiment: IL-1α protein production (ELISA) in keratinocytes stressed with LPS; type: cell-based, human; conditions: keratinocytes stressed with 10 μg/ml LPS 24 h: LPS alone, or pretreated with 0.1% AV119 24 h, or with 30 μM calpain; culture supernatant
Experimental: as §9, §10, §11, §13

IL-6 [11] = experiment: IL-6 gene expression (mRNA, real-time PCR) in keratinocytes stressed with LPS; type: cell-based, human; conditions: keratinocytes stressed with 10 μg/ml LPS 24 h: LPS alone, or pretreated with 0.1% AV119 24 h, or with 30 μM calpain
Experimental: as §9, §10, §11, §12

IL-8 [12] = experiment: IL-8 protein production (ELISA) in keratinocytes stressed with LPS; type: cell-based, human; conditions: keratinocytes stressed with 10 μg/ml LPS 24 h: LPS alone, or pretreated with 0.1% AV119 24 h, or with 30 μM calpain; culture supernatant
Experimental: as §9, §10, §11, §13

IL-8 [13] = experiment: IL-8 gene expression (mRNA, real-time PCR) in keratinocytes stressed with LPS; type: cell-based, human; conditions: keratinocytes stressed with 10 μg/ml LPS 24 h: LPS alone, or pretreated with 0.1% AV119 24 h, or with 30 μM calpain
Experimental: as §9, §10, §11, §12

ICAM-1 [14] = experiment: ICAM-1 protein production (ELISA) in keratinocytes stressed with LPS; type: cell-based, human; conditions: keratinocytes stressed with 10 μg/ml LPS 24 h: LPS alone, or with 1% AV119, or with 30 μM calpain
Experimental: as §9
as §10, with “The cells were pretreated with 0.1% AV119 for 24 h and successively with 10 μg/ml of LPS for 24 h.” left out
as §11, §13

[15] = 0.1 μM dexamethasone, in relation to PMA
[16] = NHEK pretreated 24 h with 0.1 μM dexamethasone, then 10 μg/ml PMA overnight
[17] = NHEK, 10 μg/ml PMA overnight, PMA alone
[18] = PMA 10 μg/ml alone, increase in relation to the untreated control (without PMA)

C[C@@H]1C[C@H]2[C@@H]3CCC4=CC(=O)C=C[C@]4(C)[C@@]3(F)[C@@H](O)C[C@]2(C)[C@@]1(O)C(=O)CO [Dexamethasone, dexamethasone]
IL-1β release, % in relation to the control (IL-1β; [15]): −70% | IL-1β pg/ml/OD450 (mean ± SD) (IL-1β; [16]): 3.232 ± 0.329 pg/ml/OD450 | TNF-α release, % in relation to the control (TNF-α [1]; [15]): −44% | TNF-α pg/ml/OD450 (mean ± SD) (TNF-α [1]; [16]): 0.328 ± 0.007 pg/ml/OD450 | IL-8 release, % in relation to the control (IL-8 [2]; [15]): −55% | IL-8 pg/ml/OD450 (mean ± SD) (IL-8 [2]; [16]): 0.790 ± 0.089 pg/ml/OD450

CCCCCCCCCCCCCC(=O)O[C@@H]1[C@@H](C)[C@@]2(O)[C@@H](C=C(CO)C[C@]3(O)C(=O)C(C)=C[C@@H]23)[C@@H]2C(C)(C)[C@]12OC(C)=O [PMA, phorbol myristate acetate]
IL-1β pg/ml/OD450 (mean ± SD) (IL-1β; [17]): 10.930 ± 0.190 pg/ml/OD450 | IL-1β release, % in relation to the control (IL-1β; [18]): 1399% | TNF-α pg/ml/OD450 (mean ± SD) (TNF-α [1]; [17]): 0.584 ± 0.079 pg/ml/OD450 | TNF-α release, % in relation to the control (TNF-α [1]; [18]): 1091% | IL-8 pg/ml/OD450 (mean ± SD) (IL-8 [2]; [17]): 1.765 ± 0.305 pg/ml/OD450 | IL-8 release, % in relation to the control (IL-8 [2]; [18]): 1017%

OCC(O)C(O)C(O)C(O)C(O)CO (stereo not drawn) [perseitol, Perseitol]
incorporation of 3H-leucine in tumor cells [3]: inhibits the incorporation of 3H-leucine

lipopolysaccharide [LPS]
IL-1α gene expression (mRNA, real-time PCR) (IL-1α [4]): 71.5 | TNF-α gene expression (mRNA, real-time PCR) (TNF-α [5]): 68.0 | IκB phosphorylation (activation of transcription factor NFκB), Western blot [6]: strongly induced IκB phosphorylation | IL-6 protein production (ELISA) (IL-6 [7]): 76 | TNF-α protein production (ELISA) (TNF-α [8]): 96.0 | ICAM-1 gene expression (mRNA, real-time PCR) (ICAM-1 [9]): 53.2 | IL-1α protein production (ELISA) (IL-1α [10]): 82 | IL-6 gene expression (mRNA, real-time PCR) (IL-6 [11]): 54.5 | IL-8 protein production (ELISA) (IL-8 [12]): 85 | IL-8 gene expression (mRNA, real-time PCR) (IL-8 [13]): 54.1 | ICAM-1 protein production (ELISA) (ICAM-1 [14]): 85
